Experimental data from patent US4018753A, “Polypeptides with ACTH-like activities” (Shionogi & Co., Ltd., priority 1974, dated 1977).
Square brackets hold non-standard residues; d marks the D form. Ends that are not written are not given here. Peptide text beside a SMILES is read from it. Aib = CC(C)(N)C(=O)O

What was measured:
hypophysectomized rat [1] = test: Adrenal-stimulating activity by intramuscular administration to hypophysectomized rat; assay type: in vivo; settings: relative potency; USP Corticotropin Reference Standard; injected into thigh muscle, blood sample 30 minutes after injection, 11-hydroxycorticosteroids
Description: (§1) Assays for adrenal-stimulating activity of the present polypeptides were carried out according to the different methods, comparing with that of native corticotropin (ACTH), [Gly^1 ]-ACTH(1-18)-NH2 [Bull.Chem.Soc.Japan 43 196 (1970)], [Aib^1 ]-ACTH(1-18)-NH2 [ibid., 43, 3873 (1970)], [Aib^1,Lys^17,18 ]-ACTH(1-18)-NH2, Cortrosyn^R (N.V.Organon, Netherland) and Cortrosyn-Z (N.V.Organon, Netherland). The adrenal-stimulating activity by the intravenous administration to hypophysectomized rat was determined in such a manner that a peptide preparation was injected into the femoral vein and a blood sample was collected from the abdominal aorta 30 minutes after the injection. The adrenal-stimulating activity by the intramuscular administration to hypophysectomized rat was also determined, where a peptide preparation was injected into the thigh muscle and a blood sample was collected from the abdominal aorta 30 minutes after injection. Throughout the experiment, the USP Corticotropin Reference Standard was used as a standard and the production of 11-hydroxycorticosteroids was determined by the fluorophotometric method of Peterson [J.Biol. Chem. 225 25 (1957)]. For each assay method several determinations were usually performed and the data obtained independently were submitted to the statistical treatment by Sheps and Moore procedure [J.Pharmacol. Extl. Therap. 128, 99 (1960)].

hypophysectomized rat [2] = test: Adrenal-stimulating activity by intravenous administration to hypophysectomized rat; assay type: in vivo; settings: relative potency; USP Corticotropin Reference Standard; injected into femoral vein, blood sample 30 minutes after injection, 11-hydroxycorticosteroids
Description: as §1

rats = test: Effect on adrenal growth and thymus involution; assay type: in vivo; design: key: *: The effects on adrenal growth and thymus involution are very weak; settings: i.m. 20 μg and 100 μg/rat/day for 2 days
Description: The effect on adrenal growth and thymus involution was determined in the following manner: peptides were intramuscularly injected into rats at a dose of 20 μg and 100 μg/rat/day respectively for 2 days. The rats were then submitted to autopsy 24 hours after the last injection, and then the adrenal and thymus were weighed respectively.

melanocyte = test: In vivo melanocyte-stimulating activity; settings: relative potency
Description: The in vivo melanocyte-stimulating activity was determined according to the method described in Endocrinol. Japonica 19, 383 (1972).

[3] = relative potency, autopsy 24 hours after last injection, adrenal and thymus weighed

Row | Molecule | Adrenal-stimulating activity i.m. (hypophysectomized rat [1]) | Adrenal-stimulating activity i.v. (hypophysectomized rat [2]) | effect on adrenal growth and thymus involution a) (rats; [3]) | Melanocyte-stimulating activity b) in vivo (melanocyte) | effect on adrenal growth and thymus involution a) (rats; symbol * in the table)
1 | CSCC[C@H](NC(=O)[C@H](CO)NC(=O)[C@H](Cc1ccc(O)cc1)NC(=O)C(C)(C)N)C(=O)N[C@@H](CCC(=O)O)C(=O)N[C@@H](Cc1c[nH]cn1)C(=O)N[C@@H](Cc1ccccc1)C(=O)N[C@@H](CCCNC(=N)N)C(=O)N[C@@H](Cc1c[nH]c2ccccc12)C(=O)NCC(=O)N[C@@H](CCCCN)C(=O)N1CCC[C@H]1C(=O)N[C@H](C(=O)NCC(=O)N[C@@H](CCCCN)C(=O)N[C@@H](CCCCN)C(=O)N[C@@H](CCCCN)C(=O)N[C@@H](CCCCN)C(N)=O)C(C)C [[Aib^1,Lys^17,18]ACTH(1-18)NH2, [Aib^1,Lys^17,18]-ACTH(1-18)-NH2] (H-[Aib]YSMEHFRWGKPVGKKKK-NH2) | 9.4 | 9.3 | 0.40 | 0.82 | –
2 | GYSMEHFRWGKPVGKKRR-NH2 [[Gly^1]ACTH(1-18)NH2, [Gly^1]-ACTH(1-18)-NH2] | 1.0 | 1.0 | very weak | 0.11 | *
3 | CSCC[C@H](NC(=O)[C@H](CO)NC(=O)[C@H](Cc1ccc(O)cc1)NC(=O)C(C)(C)N)C(=O)N[C@@H](CCC(=O)O)C(=O)N[C@@H](Cc1c[nH]cn1)C(=O)N[C@@H](Cc1ccccc1)C(=O)N[C@@H](CCCNC(=N)N)C(=O)N[C@@H](Cc1c[nH]c2ccccc12)C(=O)NCC(=O)N[C@@H](CCCCN)C(=O)N1CCC[C@H]1C(=O)N[C@H](C(=O)NCC(=O)N[C@@H](CCCCN)C(=O)N[C@@H](CCCCN)C(=O)N[C@@H](CCCNC(=N)N)C(=O)N[C@@H](CCCNC(=N)N)C(N)=O)C(C)C [[Aib^1]ACTH(1-18)NH2, [Aib^1]-ACTH(1-18)-NH2] (H-[Aib]YSMEHFRWGKPVGKKRR-NH2) | 9.9 | 4.1 | 0.12 | 1.00 | –
4 | Native ACTH: native corticotropin (ACTH) (SYSMEHFRWGKPVGKKRRPVKVYPNGAEDESAEAFPLEF; Corticotropin; UniProt P01189 138-176, looked up) | 4.0 | 1.0 | very weak | – | *
